In one assay the target is USP1-UAF1 (Homo sapiens, UniProt O94782). As to the kind of experiment: Ubiquitin Rhodamine assay for USP1-UAF1 activity. In kind it is biochemical. As for the experimental part:
Certain compounds of the disclosure were assessed for USP1-UAF1 activity in a Ubiquitin Rhodamine assay as described in Example 135.

The next assay concerns monoubiquitinated PCNA. The assay is described as follows: AlphaLISA assay measuring monoubiquitinated PCNA in MDA-MB-436. In kind it is cell-based. Particulars: read-out: Alpha LISA IC50. The source says:
Table 1 also indicates IC50 values for exemplary compounds in an AlphaLISA assay measuring monoubiquitinated PCNA in a BRCA1 mutant cell line (MDA-MB-436; column 7).

Assay [1] relates to MDA-MB-436 (BRCA1 mutant) cell line. The assay is described as follows: Viability assay in BRCA1 mutant cell line MDA-MB-436. It counts as cell-based. Particulars: BRCA1 mutant MDA-MB-436, read-out: MDA-MB-436 rel IC50. An excerpt:
(§1) Table 1 also indicates IC50 values in a viability assay for a non-isogenic pair of BRCA1 mutant (column 5—MDA-MB-436) and BRCA1 WT (column 6—HCC1954) cell lines. These values indicate the effect of treatment with compound on cell survival.

Assay [2] concerns HCC1954 (BRCA1 WT) cell line. As to the kind of experiment: Viability assay in BRCA1 WT cell line HCC1954. It counts as cell-based. Particulars: Homo sapiens, read-out: HCC 1954 IC50 rel IC50.
Excerpt: as §1

[3] abbreviates: Homo sapiens, MDA-MB-436, viability.

pIC50: −log10 of the molar value. Read-outs that look alike come from different tables or passages of the source.

Here are results for 26 molecules from patent US20240182481A1 (Tango Therapeutics, Inc., priority 2021, published 2024).

Sequence of USP1-UAF1 (O94782 whole entry): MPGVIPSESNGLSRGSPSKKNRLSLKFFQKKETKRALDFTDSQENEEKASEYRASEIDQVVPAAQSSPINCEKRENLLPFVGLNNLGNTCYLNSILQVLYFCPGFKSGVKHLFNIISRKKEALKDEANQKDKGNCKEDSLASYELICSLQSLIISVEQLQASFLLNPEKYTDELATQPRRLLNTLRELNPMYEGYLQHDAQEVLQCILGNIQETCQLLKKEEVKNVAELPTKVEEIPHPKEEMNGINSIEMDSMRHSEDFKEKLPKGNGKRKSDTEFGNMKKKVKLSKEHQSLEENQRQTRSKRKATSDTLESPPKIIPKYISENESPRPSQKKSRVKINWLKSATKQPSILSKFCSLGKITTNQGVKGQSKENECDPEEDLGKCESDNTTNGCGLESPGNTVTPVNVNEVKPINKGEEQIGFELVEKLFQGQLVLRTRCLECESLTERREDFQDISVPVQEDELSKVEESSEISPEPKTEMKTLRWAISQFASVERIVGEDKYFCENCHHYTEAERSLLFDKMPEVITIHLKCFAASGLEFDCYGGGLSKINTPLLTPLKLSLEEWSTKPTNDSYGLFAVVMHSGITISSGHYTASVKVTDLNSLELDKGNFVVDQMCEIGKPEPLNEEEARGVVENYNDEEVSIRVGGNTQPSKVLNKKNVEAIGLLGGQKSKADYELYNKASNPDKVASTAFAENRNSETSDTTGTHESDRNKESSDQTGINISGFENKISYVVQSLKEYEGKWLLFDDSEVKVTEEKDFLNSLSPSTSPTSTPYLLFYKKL
Sequence of USP1-UAF1 (Q8TAF3 whole entry partner): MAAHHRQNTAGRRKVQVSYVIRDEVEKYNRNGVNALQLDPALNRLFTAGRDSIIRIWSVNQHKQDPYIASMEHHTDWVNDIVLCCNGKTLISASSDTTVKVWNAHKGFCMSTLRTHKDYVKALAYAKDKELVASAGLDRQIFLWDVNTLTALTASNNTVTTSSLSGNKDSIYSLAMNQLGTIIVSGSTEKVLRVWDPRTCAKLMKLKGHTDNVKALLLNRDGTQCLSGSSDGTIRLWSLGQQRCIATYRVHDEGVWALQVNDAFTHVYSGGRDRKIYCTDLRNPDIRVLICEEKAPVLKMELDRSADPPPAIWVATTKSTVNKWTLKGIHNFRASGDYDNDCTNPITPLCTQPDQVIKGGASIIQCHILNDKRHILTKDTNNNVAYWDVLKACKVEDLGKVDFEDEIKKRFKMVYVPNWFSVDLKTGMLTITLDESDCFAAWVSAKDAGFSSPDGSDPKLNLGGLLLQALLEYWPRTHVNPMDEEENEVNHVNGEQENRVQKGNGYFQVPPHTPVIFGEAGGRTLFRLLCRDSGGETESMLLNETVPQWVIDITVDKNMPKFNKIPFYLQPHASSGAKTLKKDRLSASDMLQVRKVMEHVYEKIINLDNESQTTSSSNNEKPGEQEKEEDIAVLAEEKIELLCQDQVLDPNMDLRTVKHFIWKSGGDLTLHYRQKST

`COc1ncnc(C2CC2)c1-c1ncc2c(n1)c(Cc1ccc(-c3nc(C(F)(F)F)cn3C3CC3)cc1)cn2C` [Compound 25]: the values for the pIC50 against USP1-UAF1 and with monoubiquitinated PCNA (Homo sapiens) were more than 7.52 and more than 7.00, respectively.

`COc1ncnc(C2CC2)c1-c1ncc2[nH]cc([C@@](C)(O)c3ccc(-c4nc(C(F)(F)F)cn4C)cc3)c2n1` (single isomer, unassigned) [Compound 4]: the values for the pIC50 (on USP1-UAF1; in assay [1] (viability); in the assay with monoubiquitinated PCNA) were 7.00 to 7.52, 6.60 to 7.00 and 6.60 to 7.00, respectively.

Turning to `Cn1cc(C(F)(F)F)nc1-c1ccc(Cc2n[nH]c3cnc(-c4c(Cl)ccnc4C4CC4)nc23)cc1` [Compound 156, 5-(4-chloro-2-cyclopropylpyridin-3-yl)-3-(4-(1-methyl-4-(trifluoromethyl)-1H-imidazol-2-yl)benzyl)-1H-pyrazolo[4,3-d]pyrimidine], the pIC50 on USP1-UAF1 was more than 7.52; in assay [1] (setting [3]) it was more than 7.00; in assay [2] it was not above 5.00.

In the case of `COc1ncnc(C2CC2)c1-c1nc(Cl)c2[nH]cc(Cc3ccc(-c4nc(C(F)(F)F)cn4C)cc3)c2n1` [Compound 187, 4-chloro-2-(4-cyclopropyl-6-methoxy-pyrimidin-5-yl)-7-[[4-[1-methyl-4-(trifluoromethyl)imidazol-2-yl]phenyl]methyl]-5H-pyrrolo[3,2-d]pyrimidine], the values for the pIC50 (on USP1-UAF1; in assay [1] (setting [3]); in assay [2]) were more than 7.52, more than 7.00 and 5.00 to 6.60, respectively.

As to `CN(C)Cc1ccccc1-c1ncc2[nH]cc(Cc3ccc(-c4nc(C(F)(F)F)cn4C)cc3)c2n1` [Compound 9], the pIC50 (against USP1-UAF1; in assay [1] (setting [3]); in assay [2]) was not above 5.00 in each case.

Turning to `COc1ncnc(C2CC2)c1-c1ncc2[nH]cc([C@@](C)(O)c3ccc(-c4nc(C(F)(F)F)cn4C)cc3)c2n1` (single isomer, unassigned) [Compound 76], the pIC50 on USP1-UAF1 was 5.00 to 7.00; in assay [1] (viability), 5.00 to 6.60; in the assay on monoubiquitinated PCNA (Homo sapiens), 6.60 to 7.00.

On to `Cn1cc(C(F)(F)F)nc1-c1ccc(Cc2c[nH]c3cnc(-c4c(OCF)ncnc4C4CC4)nc23)cc1` [Compound 173, 2-[4-cyclopropyl-6-(fluoromethoxy)pyrimidin-5-yl]-7-[[4-[1-methyl-4-(trifluoromethyl)imidazol-2-yl]phenyl]methyl]-5H-pyrrolo[3,2-d]pyrimidine], for which the pIC50 at USP1-UAF1 is more than 7.52; in assay [1] (setting [3]), more than 7.00; in assay [2], not above 5.00.

For the molecule `Cn1cc(C(F)(F)F)nc1-c1ccc(Cc2c[nH]c3cnc(-c4cccnc4NC4CC4)nc23)cc1` [Compound 44], the pIC50 is 5.00 to 7.00 against USP1-UAF1, 5.00 to 6.60 in assay [1] (setting [3]) and 5.00 to 6.60 in assay [2].

For the molecule `CC(C)Nc1ncccc1-c1ncc2[nH]cc(Cc3ccc(-c4nc(C(F)(F)F)cn4C)cc3)c2n1` [Compound 50, N-isopropyl-3-[7-[[4-[1-methyl-4-(trifluoromethyl)imidazol-2-yl]phenyl]methyl]-5H-pyrrolo[3,2-d]pyrimidin-2-yl]pyridin-2-amine], the pIC50 against USP1-UAF1 is 5.00 to 7.00; in assay [1] (setting [3]), 5.00 to 6.60; in assay [2] it was 5.00 to 6.60.

Take `CC(C)c1ccccc1-c1ncc2[nH]cc(CN3CCC(c4nc(C(F)(F)F)cn4C)CC3)c2n1` [Compound 6, 2-(2-isopropylphenyl)-7-[[4-[1-methyl-4-(trifluoromethyl)imidazol-2-yl]-1-piperidyl]methyl]-5H-pyrrolo[3,2-d]pyrimidine]: the pIC50 against USP1-UAF1 was 5.00 to 7.00; in assay [1] (setting [3]), 5.00 to 6.60; in assay [2], not above 5.00.

Consider `Cn1cc(C(F)(F)F)nc1-c1ccc(C(O)c2c[nH]c3cnc(-c4c(C(F)(F)F)cnn4C)nc23)cc1` (centres unmarked) [Compound 108, [4-[1-methyl-4-(trifluoromethyl)imidazol-2-yl]phenyl]-[2-[2-methyl-4-(trifluoromethyl)pyrazol-3-yl]-5H-pyrrolo[3,2-d]pyrimidin-7-yl]methanol], for which the results for the negative logarithm of the IC50 (pIC50) (against USP1-UAF1; in assay [1] (setting [3]); in assay [2]) were 5.00 to 7.00, 5.00 to 6.60 and not above 5.00, respectively.

As for `CC(C)Oc1ncccc1-c1ncc2[nH]cc(Cc3ccc(-c4nc(C(F)(F)F)cn4C)cc3)c2n1` [Compound 55, 2-isopropoxy-3-[7-([4-[1-methyl-4-(trifluoromethyl)imidazol-2-yl]phenyl]methyl)-5H-pyrrolo[3,2-d]pyrimidin-2-yl]pyridine], the values for the pIC50 (at USP1-UAF1; in assay [1] (setting [3]); in assay [2]) were more than 7.52, more than 7.00 and not above 5.00, respectively.

In the case of `COc1ncnc(C2CC2)c1-c1ncc2[nH]cc(C(O)c3ccc(-c4nc(C(F)(F)F)cn4C)cc3)c2n1` (centres unmarked) [Compound 49, [2-(4-cyclopropyl-6-methoxy-pyrimidin-5-yl)-5H-pyrrolo[3,2-d]pyrimidin-7-yl]-[4-[1-methyl-4-(trifluoromethyl)imidazol-2-yl]phenyl]methanol], the values for the pIC50 (at USP1-UAF1; in assay [1] (setting [3]); in assay [2]) were 5.00 to 7.00, 5.00 to 6.60 and not above 5.00, respectively.

In the case of `CC(C)c1ccccc1-c1ncc2c(n1)c(C(O)c1ccc(-c3nc(C(F)(F)F)cn3C)cc1)cn2Cc1ccccc1` (centres unmarked) [Compound 80], the pIC50 was 5.00 to 7.00 against USP1-UAF1, 5.00 to 6.60 in assay [1] (setting [3]) and not above 5.00 in assay [2].

On to `COc1ncnc(C2CC2)c1-c1ncc2c(n1)c(Cc1ccc(-c3nc(C(F)(F)F)cn3C)cc1)cn2C` [Compound 39, 2-(4-cyclopropyl-6-methoxy-pyrimidin-5-yl)-5-methyl-7-[[4-[1-methyl-4-(trifluoromethyl)imidazol-2-yl]phenyl]methyl]pyrrolo[3,2-d]pyrimidine], for which the pIC50 against USP1-UAF1 is more than 7.52; in assay [1] (setting [3]) it was more than 7.00; in assay [2] it was not above 5.00.

On to `CC(C)c1ccccc1-c1ncc2[nH]cc(Nc3ccc(-c4nc(C(F)(F)F)cn4C)cc3)c2n1` [Compound 62, 2-(2-isopropylphenyl)-N-[4-[1-methyl-4-(trifluoromethyl)imidazol-2-yl]phenyl]-5H-pyrrolo[3,2-d]pyrimidin-7-amine], for which the pIC50 against USP1-UAF1 was 5.00 to 7.00; in assay [1] (setting [3]), 5.00 to 6.60; in assay [2] it was 5.00 to 6.60.

For `Cn1cc(C(F)(F)F)nc1-c1ccc(C(O)c2c[nH]c3cnc(-c4cccnc4C4CC4)cc23)cc1` (centres unmarked) [Compound 30, [5-(2-cyclopropylpyridin-3-yl)-1H-pyrrolo[2,3-c]pyridin-3-yl]([4-[1-methyl-4-(trifluoromethyl)imidazol-2-yl]phenyl])methanol], the results for the pIC50 (against USP1-UAF1; in assay [1] (setting [3]); in assay [2]) were 5.00 to 7.00, not above 5.00 and not above 5.00, respectively.

For `CN(Cc1ccccc1-c1ncc2[nH]cc(Cc3ccc(-c4nc(C(F)(F)F)cn4C)cc3)c2n1)CC(F)(F)F` [Compound 61], the pIC50 at USP1-UAF1 is 7.00 to 7.52; in assay [1] (setting [3]) it was 5.00 to 6.60; in assay [2], 5.00 to 6.60.

On to `Cn1cc(C(F)(F)F)nc1-c1ccc(Nc2c[nH]c3cnc(-c4cccnc4C4CC4)nc23)cc1` [Compound 43, 2-(2-cyclopropyl-3-pyridyl)-N-[4-[1-methyl-4-(trifluoromethyl)imidazol-2-yl]phenyl]-5H-pyrrolo[3,2-d]pyrimidin-7-amine], for which the values for the pIC50 (against USP1-UAF1; in assay [1] (setting [3]); in assay [2]) were 5.00 to 7.00, not above 5.00 and not above 5.00, respectively.

`CC(C)n1cc(C(F)(F)F)nc1-c1ccc(C(O)c2c[nH]c3cnc(-c4cccnc4OC(F)F)nc23)cc1` (centres unmarked) [Compound 52, [2-[2-(difluoromethoxy)-3-pyridyl]-5H-pyrrolo[3,2-d]pyrimidin-7-yl]-[4-[1-isopropyl-4-(trifluoromethyl)imidazol-2-yl]phenyl]methanol]: the pIC50 is 5.00 to 7.00 on USP1-UAF1, 5.00 to 6.60 in assay [1] (setting [3]) and not above 5.00 in assay [2].

Take `Cn1cc(C(F)(F)F)nc1-c1ccc(Cc2c[nH]c3cnc(-c4c(OC5CC5)ncnc4C4CC4)nc23)cc1` [Compound 155]: the figures for the pIC50 (at USP1-UAF1; in assay [1] (setting [3]); in assay [2]) were more than 7.52, more than 7.00 and not above 5.00, respectively.

`CC(C)c1ccccc1-c1ncc2[nH]cc(C(=O)c3ccc(-c4nc(C(F)(F)F)cn4C)cc3)c2n1` [Compound 86, [2-(2-isopropylphenyl)-5H-pyrrolo[3,2-d]pyrimidin-7-yl]-[4-[1-methyl-4-(trifluoromethyl)imidazol-2-yl]phenyl]methanone]: the pIC50 is not above 5.00 on USP1-UAF1, 5.00 to 6.60 in assay [1] (setting [3]) and 5.00 to 6.60 in assay [2].

On to `Cn1cc(C(F)(F)F)nc1-c1ccc(Cc2c[nH]c3cnc(-c4ccccc4CO)nc23)cc1` [Compound 72], for which the values for the pIC50 (against USP1-UAF1; in assay [1] (setting [3]); in assay [2]) were 5.00 to 7.00, 5.00 to 6.60 and not above 5.00, respectively.

Consider `COc1ncnc(C2CC2)c1-c1ncc2[nH]cc(C(c3ccc(-c4nc(C(F)(F)F)cn4C)cc3)C(C)C)c2n1` (centres unmarked) [Compound 145], for which the values for the negative-log IC50 (pIC50) (against USP1-UAF1; in assay [1] (setting [3]); in assay [2]) were 7.00 to 7.52, 6.60 to 7.00 and 5.00 to 6.60, respectively.

For the molecule `COc1ncnc(C2CC2)c1-c1ncc2[nH]cc(C(O)c3ccc(-c4nc(C(F)(F)F)cn4C4CN(C)C4)cc3)c2n1` (centres unmarked) [Compound 7, (2-(4-cyclopropyl-6-methoxypyrimidin-5-yl)-5H-pyrrolo[3,2-d]pyrimidin-7-yl)(4-(1-(1-methylazetidin-3-yl)-4-(trifluoromethyl)-1H-imidazol-2-yl)phenyl)methanol], the negative-log IC50 (pIC50) (against USP1-UAF1; in assay [1] (setting [3]); in assay [2]) was not above 5.00 each time.

On to `Cn1cc(C(F)(F)F)nc1-c1ccc(C(O)c2c[nH]c3cnc(-c4cccnc4C4CC4)nc23)cc1` (centres unmarked) [Compound 40], for which the pIC50 is 5.00 to 7.00 against USP1-UAF1, 5.00 to 6.60 in assay [1] (setting [3]) and not above 5.00 in assay [2].
